Earlier results, collected in patent publication US20230037437A1, “FORMULATIONS FOR USE IN THE TREATMENT OF DIFFERENT TYPES OF ADDICTIONS AND DEPENDENCE ON ADDICTIVE SUBSTANCES” (UNIBIOLABS INTERNACIONAL S.A DE C.V, priority 2019, published 2023).

Experiments:
cocaine abusers = details: patients taking magnesium versus placebo
serotonin transporter = serotonin transporter (Homo sapiens, UniProt P31645)
IKr channel (hERG) = IKr channel (hERG) (Homo sapiens, UniProt Q12809)
[1] = biological target: dopamine transporter (DAT) (Homo sapiens, UniProt Q01959); details: relative to cocaine
dopamine transporter (DAT), sequence (Q01959 whole entry, species assumed): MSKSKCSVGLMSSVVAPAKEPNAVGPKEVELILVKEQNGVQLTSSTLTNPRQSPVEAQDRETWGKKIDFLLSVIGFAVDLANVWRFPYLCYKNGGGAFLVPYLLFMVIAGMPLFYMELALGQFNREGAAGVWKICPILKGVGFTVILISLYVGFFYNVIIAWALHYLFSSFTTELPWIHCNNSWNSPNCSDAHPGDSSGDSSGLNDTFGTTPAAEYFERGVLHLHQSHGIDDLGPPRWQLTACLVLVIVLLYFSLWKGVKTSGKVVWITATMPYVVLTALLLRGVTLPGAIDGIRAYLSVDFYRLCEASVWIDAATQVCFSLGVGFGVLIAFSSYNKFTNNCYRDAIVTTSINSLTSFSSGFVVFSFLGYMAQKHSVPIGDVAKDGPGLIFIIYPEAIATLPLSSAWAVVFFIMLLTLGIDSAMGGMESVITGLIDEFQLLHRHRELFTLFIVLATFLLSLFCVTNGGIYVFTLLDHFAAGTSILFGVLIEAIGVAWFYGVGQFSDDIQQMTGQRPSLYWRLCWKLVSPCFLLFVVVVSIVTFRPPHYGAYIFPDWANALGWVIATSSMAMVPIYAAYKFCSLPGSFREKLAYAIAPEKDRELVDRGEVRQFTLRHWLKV

IKr channel (hERG), sequence (Q12809 whole entry): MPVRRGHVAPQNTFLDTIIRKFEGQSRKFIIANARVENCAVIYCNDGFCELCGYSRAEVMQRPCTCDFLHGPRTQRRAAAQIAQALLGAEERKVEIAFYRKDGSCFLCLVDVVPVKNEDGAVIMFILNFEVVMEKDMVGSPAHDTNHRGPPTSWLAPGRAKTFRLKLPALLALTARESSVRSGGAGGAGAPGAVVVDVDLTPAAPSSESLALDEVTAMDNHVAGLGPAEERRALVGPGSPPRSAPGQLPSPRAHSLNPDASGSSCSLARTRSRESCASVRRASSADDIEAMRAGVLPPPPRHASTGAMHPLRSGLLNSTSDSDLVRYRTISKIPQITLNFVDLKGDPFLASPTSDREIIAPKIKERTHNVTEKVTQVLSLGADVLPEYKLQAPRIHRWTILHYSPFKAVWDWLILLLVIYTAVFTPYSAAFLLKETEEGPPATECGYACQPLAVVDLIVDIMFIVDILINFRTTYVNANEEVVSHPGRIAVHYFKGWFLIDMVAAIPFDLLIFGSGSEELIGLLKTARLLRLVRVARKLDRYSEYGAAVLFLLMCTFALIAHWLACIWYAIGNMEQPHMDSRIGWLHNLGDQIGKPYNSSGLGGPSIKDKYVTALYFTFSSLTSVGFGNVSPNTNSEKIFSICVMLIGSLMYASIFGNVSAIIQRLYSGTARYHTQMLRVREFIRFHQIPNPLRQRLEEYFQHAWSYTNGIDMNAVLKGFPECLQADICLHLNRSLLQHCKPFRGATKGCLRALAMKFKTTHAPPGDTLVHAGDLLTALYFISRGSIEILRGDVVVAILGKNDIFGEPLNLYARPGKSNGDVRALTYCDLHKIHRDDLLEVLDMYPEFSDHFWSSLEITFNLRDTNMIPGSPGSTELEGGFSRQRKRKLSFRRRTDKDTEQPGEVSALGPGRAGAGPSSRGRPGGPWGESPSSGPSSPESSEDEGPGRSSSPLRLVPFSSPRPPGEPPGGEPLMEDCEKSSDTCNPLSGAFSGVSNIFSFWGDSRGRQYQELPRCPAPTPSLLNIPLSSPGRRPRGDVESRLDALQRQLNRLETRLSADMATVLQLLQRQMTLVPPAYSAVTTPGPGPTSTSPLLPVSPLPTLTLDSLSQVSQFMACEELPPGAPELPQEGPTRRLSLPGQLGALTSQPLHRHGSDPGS
serotonin transporter, sequence (P31645 whole entry): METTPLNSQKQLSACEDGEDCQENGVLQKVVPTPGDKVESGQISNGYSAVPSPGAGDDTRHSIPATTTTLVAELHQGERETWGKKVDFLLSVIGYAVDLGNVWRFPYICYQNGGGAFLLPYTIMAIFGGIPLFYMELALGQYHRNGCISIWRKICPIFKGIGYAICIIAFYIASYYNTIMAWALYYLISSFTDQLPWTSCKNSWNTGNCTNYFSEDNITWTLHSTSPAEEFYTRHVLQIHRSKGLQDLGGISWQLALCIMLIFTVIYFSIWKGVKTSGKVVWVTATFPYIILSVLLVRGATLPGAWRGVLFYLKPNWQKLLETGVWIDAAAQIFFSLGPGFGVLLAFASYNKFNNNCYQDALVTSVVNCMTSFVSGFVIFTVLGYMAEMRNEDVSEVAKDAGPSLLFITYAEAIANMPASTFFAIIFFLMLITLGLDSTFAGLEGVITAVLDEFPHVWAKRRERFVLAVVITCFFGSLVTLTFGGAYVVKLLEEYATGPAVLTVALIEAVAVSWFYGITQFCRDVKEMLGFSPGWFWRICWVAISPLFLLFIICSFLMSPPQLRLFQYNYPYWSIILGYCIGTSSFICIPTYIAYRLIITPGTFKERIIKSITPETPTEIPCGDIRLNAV

| Structure (SMILES) | cocaine craving scores, lower than in patients taking placebo (cocaine abusers) [%] | affinity to the serotonin transporter (serotonin transporter) | IKr channel (hERG) block (IKr channel (hERG)) | binding to the target site on the dopamine transporter (DAT), stronger than cocaine [1] |
| --- | --- | --- | --- | --- |
| [Mg+2] [magnesium] | 78 | – | – | – |
| Fc1ccc(C(OCCN2CCN(CCCc3ccccc3)CC2)c2ccc(F)cc2)cc1 [GBR 12909, Vanoxerine] | – | nanomolar affinity | potent IKr channel blocker | approximately 50 times |
